ChEMBL document CHEMBL1153762, “Novel, broad-spectrum anticonvulsants containing a sulfamide group: advancement of N-((benzo[b]thien-3-yl)methyl)sulfamide (JNJ-26990990) into human clinical studies” (J Med Chem, 2009)
Calls of active or inactive are those of the source.

How the values were obtained:
[1] = molecular target: Voltage-dependent N-type calcium channel subunit alpha-1B (Rattus norvegicus) (UniProt Q02294); assay: Inhibition of rat Cav2.2 channel expressed in 5 Hz frequency-stimulated HEK cells at 30 uM by whole-cell patch-clamp technique; assay type: cell-based; details: HEK293
Sequence of Voltage-dependent N-type calcium channel subunit alpha-1B (Rattus norvegicus) (Q02294 whole entry, looked up): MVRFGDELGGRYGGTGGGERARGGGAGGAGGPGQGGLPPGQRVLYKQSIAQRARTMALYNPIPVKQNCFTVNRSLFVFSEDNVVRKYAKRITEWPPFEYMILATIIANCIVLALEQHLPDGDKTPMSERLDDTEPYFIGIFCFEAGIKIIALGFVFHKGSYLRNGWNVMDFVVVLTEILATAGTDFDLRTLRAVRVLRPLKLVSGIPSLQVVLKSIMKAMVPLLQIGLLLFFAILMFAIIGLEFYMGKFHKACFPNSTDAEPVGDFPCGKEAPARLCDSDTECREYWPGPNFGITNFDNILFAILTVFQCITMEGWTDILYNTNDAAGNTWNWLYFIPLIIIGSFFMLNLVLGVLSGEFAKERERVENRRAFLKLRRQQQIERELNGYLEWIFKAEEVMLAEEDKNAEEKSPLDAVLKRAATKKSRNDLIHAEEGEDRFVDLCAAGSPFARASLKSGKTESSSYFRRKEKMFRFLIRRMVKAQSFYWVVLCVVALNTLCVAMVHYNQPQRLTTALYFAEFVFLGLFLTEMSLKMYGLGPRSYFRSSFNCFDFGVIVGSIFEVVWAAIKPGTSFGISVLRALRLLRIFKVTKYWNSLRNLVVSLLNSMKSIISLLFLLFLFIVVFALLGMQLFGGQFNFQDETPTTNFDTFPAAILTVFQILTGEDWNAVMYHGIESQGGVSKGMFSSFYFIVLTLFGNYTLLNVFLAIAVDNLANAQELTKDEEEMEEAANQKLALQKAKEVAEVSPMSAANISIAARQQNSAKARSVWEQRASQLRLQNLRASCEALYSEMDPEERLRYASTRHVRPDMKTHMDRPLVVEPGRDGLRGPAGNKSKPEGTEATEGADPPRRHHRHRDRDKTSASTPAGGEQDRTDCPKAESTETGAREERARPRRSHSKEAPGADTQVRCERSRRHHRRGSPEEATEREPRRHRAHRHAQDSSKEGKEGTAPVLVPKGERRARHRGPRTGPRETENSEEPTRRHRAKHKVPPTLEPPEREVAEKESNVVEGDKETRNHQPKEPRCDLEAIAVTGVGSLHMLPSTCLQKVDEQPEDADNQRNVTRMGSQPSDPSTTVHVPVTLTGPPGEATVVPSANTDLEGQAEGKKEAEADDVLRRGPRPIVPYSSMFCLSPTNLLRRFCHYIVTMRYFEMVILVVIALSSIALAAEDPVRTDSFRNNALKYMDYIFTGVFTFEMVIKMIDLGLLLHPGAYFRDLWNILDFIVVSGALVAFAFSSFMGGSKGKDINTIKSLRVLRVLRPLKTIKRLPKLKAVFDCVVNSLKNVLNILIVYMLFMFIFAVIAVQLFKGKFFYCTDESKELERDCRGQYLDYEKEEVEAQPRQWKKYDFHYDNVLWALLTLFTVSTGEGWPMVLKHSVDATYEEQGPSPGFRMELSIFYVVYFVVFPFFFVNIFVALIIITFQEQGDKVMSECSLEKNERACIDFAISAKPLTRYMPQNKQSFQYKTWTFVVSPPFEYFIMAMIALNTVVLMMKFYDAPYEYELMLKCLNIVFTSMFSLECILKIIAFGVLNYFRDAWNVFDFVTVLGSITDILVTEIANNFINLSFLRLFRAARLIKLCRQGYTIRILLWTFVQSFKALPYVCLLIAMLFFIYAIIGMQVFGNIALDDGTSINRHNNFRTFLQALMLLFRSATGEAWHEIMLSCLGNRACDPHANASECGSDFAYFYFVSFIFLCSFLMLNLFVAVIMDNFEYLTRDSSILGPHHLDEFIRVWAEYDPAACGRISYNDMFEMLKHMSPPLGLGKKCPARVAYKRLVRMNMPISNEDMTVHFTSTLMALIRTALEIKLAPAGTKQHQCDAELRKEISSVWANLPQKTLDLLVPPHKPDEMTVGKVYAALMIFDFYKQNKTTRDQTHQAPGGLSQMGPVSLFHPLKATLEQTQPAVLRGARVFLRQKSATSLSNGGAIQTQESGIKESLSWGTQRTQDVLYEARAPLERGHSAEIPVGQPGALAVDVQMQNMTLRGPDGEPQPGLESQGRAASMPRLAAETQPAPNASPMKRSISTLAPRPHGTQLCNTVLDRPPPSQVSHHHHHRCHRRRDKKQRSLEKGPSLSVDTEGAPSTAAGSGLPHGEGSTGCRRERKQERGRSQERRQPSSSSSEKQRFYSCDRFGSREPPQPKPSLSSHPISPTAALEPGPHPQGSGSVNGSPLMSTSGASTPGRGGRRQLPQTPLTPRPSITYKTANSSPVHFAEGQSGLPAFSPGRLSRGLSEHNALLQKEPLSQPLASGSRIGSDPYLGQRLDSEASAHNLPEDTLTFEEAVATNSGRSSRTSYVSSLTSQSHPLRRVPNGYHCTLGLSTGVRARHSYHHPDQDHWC

Plasma [2] = assay: Metabolic stability in rat plasma assessed as formation of biotransformation product N-[(1-oxido-1-benzothien-3-yl)methyl]sulfamide at 500 mg, po up to 72 hrs by MS/MS analysis; assay type: ADME, organism-based; details: in vivo
[3] = molecular target: Potassium voltage-gated channel subfamily KQT member 2 (Rattus norvegicus) (UniProt O88943); assay: Activation of rat Kv7.2 assessed as increase in channel current at membrane potential of -70 to -3- mV at 300 uM by whole-cell patch-clamp technique; assay type: cell membranes
[4] = Clearance in mouse at 30 mg/kg, po and 3 mg/kg, iv administered as bolus dose; assay type: ADME, organism-based; details: in vivo
[5] = Plasma concentration in rat assessed as unchanged compound remaining at 59.2 kBq/mg, po after 4 hrs by MS/MS analysis; assay type: ADME, organism-based; details: read-out: Activity
[6] = Metabolic stability in rat urine assessed as formation of [(Benzo[b]thiophene-3-carbonyl)-amino]-acetic acid at 59.2 kBq/mg, po after 8 to 24 hrs by MS/MS analysis; assay type: ADME, organism-based; details: in vivo
[7] = Metabolic stability in human liver microsomes assessed as compound remaining at 2 uM after 10 mins; assay type: ADME, Microsome; details: read-out: Stability
[8] = Half life in mouse at 30 mg/kg, po administered as bolus dose; assay type: ADME, organism-based; set-up: dose 30 mg/kg, route oral; details: in vivo
Mus musculus [9] = species on record: Mus musculus; assay: Inhibition of NMDA receptor in mouse cortical neuron assessed as inhibition of glycine-induced receptor current at 100 uM by whole-cell patch-clamp technique
Carbonic anhydrase 1 = Carbonic anhydrase 1 (Homo sapiens, UniProt P00915); assay: Inhibition of carbonic anhydrase 1
Sequence of Carbonic anhydrase 1 (P00915 whole entry): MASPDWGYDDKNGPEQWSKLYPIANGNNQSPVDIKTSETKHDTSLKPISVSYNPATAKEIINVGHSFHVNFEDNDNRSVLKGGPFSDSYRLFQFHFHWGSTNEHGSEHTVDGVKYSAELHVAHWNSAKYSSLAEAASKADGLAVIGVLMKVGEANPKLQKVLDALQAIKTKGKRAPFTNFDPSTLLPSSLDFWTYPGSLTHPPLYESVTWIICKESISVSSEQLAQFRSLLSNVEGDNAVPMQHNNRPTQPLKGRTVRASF

[10] = molecular target: Sodium channel protein type 2 subunit alpha (Rattus norvegicus) (UniProt P04775); assay: Inhibition of rat Nav1.2 channel expressed in chinese hamster CHL1610 cells at preconditioning pulse of -107 mV after 2 to 3 mins by whole-cell patch-clamp technique; assay type: cell-based
Sequence of Sodium channel protein type 2 subunit alpha (Rattus norvegicus) (P04775 whole entry, looked up): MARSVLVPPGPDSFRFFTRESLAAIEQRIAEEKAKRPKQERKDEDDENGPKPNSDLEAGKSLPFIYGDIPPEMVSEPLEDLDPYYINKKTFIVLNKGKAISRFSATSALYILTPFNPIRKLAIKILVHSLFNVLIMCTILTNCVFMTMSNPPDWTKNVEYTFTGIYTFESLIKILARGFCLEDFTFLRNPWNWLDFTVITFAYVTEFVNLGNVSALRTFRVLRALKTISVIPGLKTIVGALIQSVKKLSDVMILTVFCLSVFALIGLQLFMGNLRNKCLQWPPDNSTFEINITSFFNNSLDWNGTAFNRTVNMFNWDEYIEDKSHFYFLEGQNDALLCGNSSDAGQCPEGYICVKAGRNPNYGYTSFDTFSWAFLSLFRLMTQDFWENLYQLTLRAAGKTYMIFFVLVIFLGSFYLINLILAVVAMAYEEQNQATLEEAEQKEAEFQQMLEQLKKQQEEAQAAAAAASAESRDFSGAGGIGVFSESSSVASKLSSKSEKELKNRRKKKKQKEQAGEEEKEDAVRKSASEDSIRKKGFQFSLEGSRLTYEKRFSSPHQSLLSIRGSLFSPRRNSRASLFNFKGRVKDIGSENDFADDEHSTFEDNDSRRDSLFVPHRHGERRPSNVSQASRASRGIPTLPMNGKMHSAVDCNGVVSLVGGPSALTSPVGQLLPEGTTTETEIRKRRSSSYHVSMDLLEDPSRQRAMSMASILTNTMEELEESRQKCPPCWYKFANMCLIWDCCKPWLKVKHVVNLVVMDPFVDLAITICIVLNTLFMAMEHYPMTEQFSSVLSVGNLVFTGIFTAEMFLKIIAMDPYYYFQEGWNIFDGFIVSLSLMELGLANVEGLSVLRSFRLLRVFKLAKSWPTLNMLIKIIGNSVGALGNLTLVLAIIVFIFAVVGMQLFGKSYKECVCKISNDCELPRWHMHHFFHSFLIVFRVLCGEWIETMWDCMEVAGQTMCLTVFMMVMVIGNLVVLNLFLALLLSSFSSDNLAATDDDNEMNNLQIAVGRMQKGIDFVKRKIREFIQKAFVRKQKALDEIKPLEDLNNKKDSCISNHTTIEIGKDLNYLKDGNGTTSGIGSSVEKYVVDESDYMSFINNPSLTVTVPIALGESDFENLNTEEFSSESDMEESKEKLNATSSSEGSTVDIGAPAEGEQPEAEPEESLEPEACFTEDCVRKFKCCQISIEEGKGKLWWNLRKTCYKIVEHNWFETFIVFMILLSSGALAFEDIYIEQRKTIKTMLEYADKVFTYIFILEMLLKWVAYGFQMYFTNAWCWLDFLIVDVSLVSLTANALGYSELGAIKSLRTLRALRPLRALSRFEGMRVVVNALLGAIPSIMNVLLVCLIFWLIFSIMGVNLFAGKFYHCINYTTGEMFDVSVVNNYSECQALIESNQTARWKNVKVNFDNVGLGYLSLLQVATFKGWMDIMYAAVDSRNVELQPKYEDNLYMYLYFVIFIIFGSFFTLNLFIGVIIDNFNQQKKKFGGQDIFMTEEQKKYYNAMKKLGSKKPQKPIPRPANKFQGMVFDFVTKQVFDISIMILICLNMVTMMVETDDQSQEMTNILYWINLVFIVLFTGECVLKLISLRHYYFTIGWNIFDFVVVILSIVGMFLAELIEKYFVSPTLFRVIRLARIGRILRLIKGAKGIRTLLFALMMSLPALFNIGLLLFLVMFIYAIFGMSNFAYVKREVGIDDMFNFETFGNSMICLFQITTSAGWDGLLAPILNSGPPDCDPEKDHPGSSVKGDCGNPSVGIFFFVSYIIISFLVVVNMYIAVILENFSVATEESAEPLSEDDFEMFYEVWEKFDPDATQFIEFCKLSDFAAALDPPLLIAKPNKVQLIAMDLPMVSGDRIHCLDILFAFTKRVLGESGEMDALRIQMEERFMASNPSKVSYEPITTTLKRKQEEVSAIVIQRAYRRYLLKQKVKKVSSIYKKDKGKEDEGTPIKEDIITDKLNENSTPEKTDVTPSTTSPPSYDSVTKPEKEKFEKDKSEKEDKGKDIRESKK

Mus musculus [11] = assay: Anticonvulsant activity against maximal electroshock-induced seizure in po dosed CF1 mouse after 3 hrs; assay type: functional
Mus musculus [12] = assay: Ratio of compound ED50 to topiramate ED50 for anticonvulsant activity against audiogenic seizures in ip dosed AGS mouse; assay type: functional
[13] = Neurotoxicity in ip dosed mouse assessed as motor impairment by rotarod test; assay type: toxicity, organism-based; details: in vivo
Mus musculus [14] = assay: Anticonvulsant activity against maximal electroshock-induced seizure in po dosed CF1 mouse after 1 hr; assay type: functional; details: Mus musculus, CF1, po, 1 h; read-out: ED50
[15] = Plasma concentration in rat at 30 mg/kg, po after 2 hrs by LC/MS analysis; assay type: ADME, organism-based; set-up: dose 30 mg/kg, route oral
[16] = Neurotoxicity in po dosed rat assessed as motor impairment by rotarod test; assay type: toxicity, organism-based; details: in vivo
Mus musculus [17] = assay: Anticonvulsant activity against picrotoxin-induced seizure in ip dosed CF1 mouse after 0.25 hrs; assay type: functional
Mus musculus [18] = assay: Anticonvulsant activity against pentylenetetrazole-induced seizure in ip dosed CF1 mouse after 0.25 hrs; assay type: functional; details: Mus musculus, CF1, ip, 0.25 h; read-out: ED50
[19] = molecular target: Voltage-dependent N-type calcium channel subunit alpha-1B (Rattus norvegicus) (UniProt Q02294); assay: Inhibition of rat Cav2.2 channel expressed in 0.07 Hz frequency-stimulated HEK cells at 30 uM by whole-cell patch-clamp technique; assay type: cell-based; details: HEK293
[20] = Half life in human liver microsomes at 2 uM; assay type: ADME, Microsome
Mus musculus [21] = assay: Anticonvulsant activity against pentylenetetrazole-induced seizure in CF1 mouse assessed as increase in threshold of seizure twitch at 182 mg/kg, ip administered 15 mins before pentylenetetrazole infusion; assay type: functional; details: route intraperitoneal
Rattus norvegicus [22] = assay: Anticonvulsant activity against maximal electroshock-induced seizure in po dosed Sprague-Dawley rat after 2 hrs; assay type: functional; details: Rattus norvegicus, Sprague-Dawley, po, 2 h; read-out: ED50
Rattus norvegicus [23] = assay: Protective index, ratio of TD50 for neurotoxicity in po dosed rat to ED50 for anticonvulsant activity against maximal electroshock-induced seizure in po dosed rat; assay type: functional
[24] = Cmax in mouse at 30 mg/kg, po administered as bolus dose; assay type: ADME, organism-based; set-up: dose 30 mg/kg, route oral; details: in vivo
[25] = molecular target: Voltage-dependent N-type calcium channel subunit alpha-1B (Rattus norvegicus) (UniProt Q02294); assay: (§1) Inhibition of rat Cav2.2 channel expressed in 0.07 Hz frequency-stimulated HEK cells by whole-cell patch-clamp technique; assay type: cell-based; details: HEK293
[26] = molecular target: Voltage-dependent N-type calcium channel subunit alpha-1B (Rattus norvegicus, UniProt Q02294); assay: as §1; assay type: cell-based, HEK293
Sequence of Voltage-dependent N-type calcium channel subunit alpha-1B (Q02294 whole entry): as the sequence (Q02294 whole entry, looked up) above

Rattus norvegicus [27] = assay: Total body water content in rat at 2 mg/kg, iv; assay type: ADME, organism-based; set-up: dose 2 mg/kg, route intravenous; details: in vivo
Rattus norvegicus [28] = assay: Anticonvulsant activity against electric stimulation-induced focal seizure in ip dosed Sprague-Dawley rat kindling model assessed as reduction of after-discharge duration administered 15 mins after last electric stimulation measured after 15 mins to 1 hr; assay type: functional; set-up: scale not given: the % may be the effect or the level left
Mus musculus [29] = assay: Anticonvulsant activity against pentylenetetrazole-induced seizure in CF1 mouse assessed as increase in seizure threshold for clonus at 107 mg/kg, ip administered 15 mins before pentylenetetrazole infusion; assay type: functional; details: route intraperitoneal
[30] = Bioavailability in rat at 10 mg/kg, po; assay type: ADME, organism-based; details: in vivo
[31] = molecular target: Sodium channel protein type 2 subunit alpha (Rattus norvegicus, UniProt P04775); assay: (§2) Inhibition of rat Nav1.2 channel expressed in chinese hamster CHL1610 cells at preconditioning pulse of -67 mV after 2 to 3 mins by whole-cell patch-clamp technique; assay type: cell-based
Sequence of Sodium channel protein type 2 subunit alpha (P04775 whole entry): as the sequence (P04775 whole entry, looked up) above

[32] = molecular target: Sodium channel protein type 2 subunit alpha (Rattus norvegicus) (UniProt P04775); assay: as §2; assay type: cell-based
[33] = Metabolic stability in rat liver microsomes assessed as compound remaining at 2 uM after 10 mins; assay type: ADME, Microsome; details: read-out: Stability
Mus musculus [34] = assay: Anticonvulsant activity against pentylenetetrazole-induced seizure in CF1 mouse assessed as increase in seizure threshold for clonus at 182 mg/kg, ip administered 15 mins before pentylenetetrazole infusion; assay type: functional; details: route intraperitoneal
Mus musculus [35] = species on record: Mus musculus; assay: Inhibition of kainate receptor in mouse cortical neuron assessed as inhibition of kainic acid-induced receptor current at 100 uM by whole-cell patch-clamp technique
[36] = Drug level in rat brain at 30 mg/kg, po after 2 hrs by LC/MS analysis; assay type: ADME, organism-based; set-up: dose 30 mg/kg, route oral; details: read-out: Drug uptake
Mus musculus [37] = assay: Anticonvulsant activity against audiogenic seizures in ip dosed AGS mouse assessed as inhibition of hindlimb tonic extension administered 1 hr prior to 11 kHz sound induction; assay type: functional; details: Mus musculus, AGS, Hindlimb, ip; read-out: ED50
[38] = molecular target: Voltage-dependent N-type calcium channel subunit alpha-1B (Rattus norvegicus) (UniProt Q02294); assay: Inhibition of rat Cav2.2 channel expressed in HEK cells assessed as depolarization-induced calcium influx by fluorescence-based assay; assay type: cell-based; details: HEK293
[39] = Metabolic stability in mouse liver microsomes assessed as compound remaining at 2 uM after 10 mins; assay type: ADME, Microsome; details: read-out: Stability
[40] = Volume of distribution at steady state in mouse at 30 mg/kg, po and 3 mg/kg, iv administered as bolus dose; assay type: ADME, organism-based; details: in vivo, read-out: Vdss
[41] = Metabolic stability in rat urine assessed as formation of benzothiophene-3-carboxylic acid at 59.2 kBq/mg, po after 8 to 24 hrs by MS/MS analysis; assay type: ADME, organism-based; details: in vivo
Plasma [42] = assay: Metabolic stability in rat plasma assessed as formation of benzothiophene-3-carboxylic acid at 59.2 kBq/mg, po after 4 hrs by MS/MS analysis; assay type: ADME, organism-based; details: in vivo
Plasma [43] = assay: Metabolic stability in rat plasma assessed as formation of N-[(1-oxido-1-benzothien-3-yl)methyl]sulfamide at 59.2 kBq/mg, po after 4 hrs by MS/MS analysis; assay type: ADME, organism-based; details: in vivo
Carbonic anhydrase 2 = Carbonic anhydrase 2 (Homo sapiens, UniProt P00918); assay: Inhibition of human carbonic anhydrase 2 by fluorimetric assay
[44] = Ratio of drug level in brain to plasma in rat at 30 mg/kg, po up to 6 hrs; assay type: ADME, organism-based; set-up: dose 30 mg/kg, route oral; details: brain and plasma, read-out: BPR
[45] = Metabolic stability in rat urine assessed as formation of biotransformation product N-[(1-oxido-1-benzothien-3-yl)methyl]sulfamide at 500 mg, po up to 24 hrs by MS/MS analysis; assay type: ADME, organism-based; details: in vivo
Mus musculus [46] = assay: Anticonvulsant activity against bicuculline-induced seizure in ip dosed CF1 mouse after 0.25 hrs; assay type: functional; details: Mus musculus, CF1, ip, 0.25 h; read-out: ED50
[47] = Half life in mouse at 3 mg/kg, iv administered as bolus dose; assay type: ADME, organism-based; set-up: dose 3 mg/kg, route intravenous; details: in vivo
Mus musculus [48] = species on record: Mus musculus; assay: Activation of GABA receptor in mouse cortical neuron assessed as increase in GABA-induced receptor current at 100 uM by whole-cell patch-clamp technique
Mus musculus [49] = assay: Total body water content in mouse at 30 mg/kg, po and 3 mg/kg, iv administered as bolus dose; assay type: ADME, organism-based; details: in vivo
[50] = Bioavailability in rat at 2 mg/kg, po; assay type: ADME, organism-based; details: in vivo
[51] = Metabolic stability in rat urine assessed as formation of N-[(1-oxido-1-benzothien-3-yl)methyl]sulfamide at 59.2 kBq/mg, po after 24 hrs by MS/MS analysis; assay type: ADME, organism-based; details: in vivo
Mus musculus [52] = assay: Anticonvulsant activity against pentylenetetrazole-induced seizure in CF1 mouse assessed as increase in threshold of seizure twitch at 107 mg/kg, ip administered 15 mins before pentylenetetrazole infusion; assay type: functional; details: route intraperitoneal
[53] = Bioavailability in mouse at 30 mg/kg, po and 3 mg/kg, iv administered as bolus dose; assay type: ADME, organism-based; details: in vivo

NS(=O)(=O)NCc1csc2ccccc12
inhibition [1]: 30% | Activity (Plasma [2]): 78% | Activity [3]: inactive | clearance [4]: 30 mL/min/kg | remaining at 4 h [5]: 60% | Activity [6]: 4.2% | remaining at 10 min, 2 µM [7]: 90% | half-life [8]: 1.5 h | inhibition (Mus musculus [9]): 23% | IC50 (Carbonic anhydrase 1): 25 µM | inhibition [10]: inactive | ED50 (Mus musculus [11]): 119 mg/kg | Ratio ED50 (Mus musculus [12]): 5 | TD50 [13]: 182 mg/kg | ED50 (Mus musculus [14]): 107 mg/kg | concentration at 2 h [15]: 19 µM | TD50 [16]: > 500 mg/kg | ED50 (Mus musculus [17]): 106 mg/kg | ED50 (Mus musculus [18]): 161 mg/kg | inhibition [19]: 20% | half-life at 2 µM [20]: > 1.67 h | Activity (Mus musculus [21]): 141% | ED50 (Rattus norvegicus [22]): 34 mg/kg | Ratio TD50/ED50 (Rattus norvegicus [23]): >15 | Cmax [24]: 3900 ng/mL | inhibition [25]: Dose-dependent effect | IC50 [26]: 133 µM | Activity (Rattus norvegicus [27]): 670 mL/kg | Activity (Rattus norvegicus [28]): 64% | Activity (Mus musculus [29]): 147% | bioavailability [30]: 96% | IC50 [31]: 48 µM | inhibition [32]: Dose-dependent effect | remaining at 10 min, 2 µM [33]: 76% | Activity (Mus musculus [34]): 159% | inhibition (Mus musculus [35]): 8% | concentration at 2 h [36]: 47 µM | ED50 (Mus musculus [37]): 21 mg/kg | inhibition [38]: Dose-dependent effect | remaining at 10 min, 2 µM [39]: 83% | Vd [40]: 2.9 L/kg | Activity [41]: 0.5% | Activity (Plasma [42]): 9% | Activity (Plasma [43]): 31% | IC50 (Carbonic anhydrase 2): 66 µM | Kp at 6 h [44]: 2.5 | Activity [45]: 46% | ED50 (Mus musculus [46]): 156 mg/kg | half-life [47]: 1.5 h | inhibition (Mus musculus [48]): 2% | Activity (Mus musculus [49]): 725 mL/kg | bioavailability [50]: 89% | Activity [51]: 48% | Activity (Mus musculus [52]): 129% | bioavailability [53]: 59%
